{"source": "patent US11844768B2", "about": "“Terameprocol and nordihydroguaiaretic acid (NDGA) derivatives as coronavirus anti-viral agents” (Erimos Pharmaceuticals, LLC, priority 2021, dated 2023)", "key": {"[1]": {"tested_on": "NL63-infected LLC-MK2 cells", "assay": "LDH release cytotoxicity assay on NL63-infected LLC-MK2 cells", "type": "cell-based, rhesus monkey", "details": "five days", "method": "With reference to FIG. 2 (Example 2), the exposure time of TMP on NL63-infected LLC-MK2 cells was measured to determine if long-term exposure to TMP could result in cell cytotoxicity. Cytotoxicity to the host cells can be caused by viral infection, which causes cell lysis, or by toxicity of test compounds to host cells. Cytotoxicity is measured by the release of lactate dehydrogenase (LDH), a cellular housekeeping enzyme, and its conversion of a colored substrate in the final reaction. Cells that die or lyse release LDH into the extracellular milieu; thus, the more LDH that is released by dying cells, the higher the LDH reading.\nLLC-MK2 cells were inoculated with NL63 as provided in Example 1. The cells were tested for cytotoxicity through the release of lactate dehydrogenase (LDH), the latter of which was measured and quantified with an LDH assay multiplate reader. The cytotoxicity assay was performed three times and values for each treatment group and controls were averaged across assays, as show in FIGS. 2 and 3."}, "[2]": {"tested_on": "SARS-CoV-2-infected Vero E6 cells", "assay": "Cell cytotoxicity (cell lysis / plaques, monoclonal antibody) of SARS-CoV-2-infected Vero E6 cells", "type": "cell-based, African green monkey", "details": "48 hours; for cell cytotoxicity (cell lysis): FIG. 5", "method": "With reference to FIG. 5 (Example 3), Vero E6 were infected with SARS-CoV-2 virus, treated with 0.2 μM, 1.0 μM, 5.0 μM, 20 μM, and 80 μM of TMP, and tested for cell cytotoxicity using monoclonal antibodies after 48 hours. Infected Vero E6 cells without treatment were used as a negative control and infected Vero E6 cells treated with CM were used as a positive control. Here, the cells were tested for cytotoxicity via the formation of plaques identified with a monoclonal antibody.\n(§1) Vero E6 African green monkey kidney epithelial cells were cultured as host cells for the SARS-CoV-2 coronavirus in 96-well cell culture plates. 500-1500 units of SARS-CoV-2 virus in Eagle's minimal essential medium (EMEM) with 10% Fetal Bovine Serum (FBS), L-glutamine, and Na-pyruvate phosphate buffered saline was introduced to the Vero E6 cell culture wells as described in Ogando et al., Journal of General Virology (2020) (available at biorxiv.org/content/10.1101/2020.04.20.049924v1). […] Plaques were identified using a plaque assay with the mouse monoclonal antibody J2 (Ogando et al., supra). Viral RNA was also isolated from the media supernatant and virus copy number was determined by RT-PCR for estimation of virus copy number following treatment.\nStock solutions of TMP were prepared by dissolving TMP in 100% DMSO at 50 mM with warming at 70° C. for 3 hours. TMP was added to the SARS-CoV-2-infected Vero E6 cells in the following concentrations: 0.2 μM, 1 μM, 5 μM, 20 μM, and 80 μM. Untreated infected Vero E6 cells and infected Vero E6 treated with CM were used as negative and positive controls, respectively. 48 hours following treatment with TMP, 400 μL of supernatant was collected from each plate well and viral RNA (no cellular RNA was collected) and virus copy number were measured from the extracted DNA by the ORIG3N RT-PCR test for the 1 μM, 5 μM, and 20 μM TMP-treatment wells as well as for the negative and positive controls. Separately, cell lysis was measured for all five TMP-treatment wells as well as for the negative and positive controls. The assay was repeated two additional times. FIGS. 4A-4C show the mean±SD of the number of copies of SARS-CoV-2 RNA measured from the cell supernatant for the three assay runs of the Vero E6 cells."}, "SARS-CoV-2 [3]": {"tested_on": "SARS-CoV-2", "type": "cell-based", "details": "48 hours, Calu-3, FIG. 6"}, "[4]": {"tested_on": "SARS-CoV-2-infected Calu-3 cells", "assay": "Cell cytotoxicity (plaques, monoclonal antibody) of SARS-CoV-2-infected Calu-3 cells", "type": "cell-based, human", "details": "48 hours, Calu-3, FIG. 6", "method": "With reference to FIG. 6 (Example 4), the TMP-treatment protocol for the Vero E6 cells was repeated with Calu-3 cells (human non-small-cell lung cancer cells) infected with SARS-CoV-2. Infected Calu-3 cells without treatment were used as a negative control and infected Calu-3 cells treated with CM were used as a positive control. A monoclonal antibody was used to identify cell cytotoxicity.\nas §1, with “Calu-3 human non-small-cell lung cancer” for “Vero E6 African green monkey kidney epithelial”, “supra.” for “Journal of General Virology (2020) (available at biorxiv.org/content/10.1101/2020.04.20.049924v1).”\nStock solutions of TMP were prepared by dissolving TMP in 100% DMSO at 50 mM with warming at 70° C. for 3 hours. TMP was added to the SARS-CoV-2-infected Vero E6 cells in the following concentrations: 5 μM, 20 μM, and 40 μM. Untreated infected Vero E6 cells and infected Vero E6 treated with CM were used as negative and positive controls, respectively. 48 hours following treatment with TMP, 400 μL of supernatant was collected from each plate well and viral RNA (no cellular RNA was collected) and virus copy number were measured determined from the extracted DNA by the ORIG3N RT-PCR test. The assay was repeated two additional times."}, "SARS-CoV-2 [5]": {"tested_on": "SARS-CoV-2", "type": "cell-based"}, "HCoV-NL63": {"tested_on": "HCoV-NL63", "details": "48 hours; for cell toxicity resulting from the TMP treatment: LLC-MK2 cells"}}, "note": "Structures can show the parent of a compound that is named as a salt. Where two headings read alike, the source gives them in different places.", "data": [{"smiles": "CN(C)C(=O)COC(=O)Cc1ccc(OC(=O)c2ccc(NC(=N)N)cc2)cc1", "note": "[CM, camostat mesylate, reference compound]", "values": [{"measurement": "cell toxicity (LDH release)", "setting": "[1]; CM positive control, FIG. 2", "value": "no cell toxicity"}, {"measurement": "cell cytotoxicity (cell lysis)", "setting": "[2]; CM positive control", "value": "no appreciable cytotoxic effects"}, {"measurement": "viral replication", "setting": "SARS-CoV-2 [3]; CM control", "value": "almost zero viral replication"}]}, {"smiles": "COc1ccc(C[C@@H](C)[C@@H](C)Cc2ccc(OC)c(OC)c2)cc1OC", "note": "[TMP, Tetra-O-methyl NDGA]", "values": [{"measurement": "cell lysis (LDH release)", "setting": "[1]; 0.2 μM TMP, FIG. 3", "value": "1-2%"}, {"measurement": "cell lysis (LDH release)", "setting": "[1]; 5 μM TMP, FIG. 2", "value": 10, "unit": "%"}, {"measurement": "cell lysis (LDH release)", "setting": "[1]; 5 μM TMP, FIG. 3", "value": "~20", "unit": "%"}, {"measurement": "cell lysis (LDH release)", "setting": "[1]; 20 μM TMP, FIG. 2", "value": "20-30%"}, {"measurement": "cell lysis (LDH release), observation", "setting": "[1]; 80 μM TMP, FIG. 2", "value": "cells separating from the plate"}, {"measurement": "cell lysis (LDH release)", "setting": "[1]; increased TMP concentration (between 0.2 and 5 μM; FIG. 3 series 0.2, 1, 5 μM)", "value": "approximately 8%"}, {"measurement": "cell cytotoxicity", "setting": "[4]; 5 μM TMP", "value": "non-detectable cytotoxicity"}, {"measurement": "cell cytotoxicity", "setting": "[4]; 20 μM TMP", "value": "non-detectable cytotoxicity"}, {"measurement": "cell cytotoxicity", "setting": "[4]; 40 μM TMP", "value": "only slightly increased cytotoxicity"}, {"measurement": "viral activity", "setting": "SARS-CoV-2 [5]; 1 μM TMP, 48 hours, FIGS. 4B and 4C", "value": "increase in viral activity"}, {"measurement": "viral replication", "setting": "SARS-CoV-2 [5]; 5 μM TMP, 48 hours, FIGS. 4B and 4C", "value": "zero viral replication"}, {"measurement": "viral replication", "setting": "SARS-CoV-2 [5]; 20 μM TMP, 48 hours, FIG. 4A", "value": "almost zero viral replication"}, {"measurement": "viral replication", "setting": "SARS-CoV-2 [5]; 20 μM TMP, 48 hours, FIGS. 4B and 4C", "value": "reduction in viral replication comparable to the CM-treated positive control"}, {"measurement": "dose response of viral replication", "setting": "SARS-CoV-2 [5]; FIG. 4A, 48 hours, Vero E6", "value": "linear dose response"}, {"measurement": "optimal TMP treatment range", "setting": "SARS-CoV-2 [5]; SARS-CoV-2-infected Vero E6 in vitro, FIGS. 4A-4C", "value": 5, "unit": "µM"}, {"measurement": "cell cytotoxicity (cell lysis)", "setting": "[2]; 0.2 μM TMP", "value": "no appreciable cytotoxic effects"}, {"measurement": "cell cytotoxicity (cell lysis)", "setting": "[2]; 1.0 μM TMP", "value": "no appreciable cytotoxic effects"}, {"measurement": "cell cytotoxicity (cell lysis)", "setting": "[2]; 5 μM TMP", "value": "no appreciable cytotoxic effects"}, {"measurement": "cell cytotoxicity (cell lysis)", "setting": "[2]; 20 μM TMP", "value": "reduced in comparison to the 80 μM treatment"}, {"measurement": "cell toxicity resulting from the TMP treatment", "setting": "[2]; 20 μM TMP, FIGS. 4B and 4C runs", "value": "no discernable cell toxicity"}, {"measurement": "cell cytotoxicity (cell lysis)", "setting": "[2]; 80 μM TMP", "value": "high percentage of cell lysis"}, {"measurement": "reduction in the mean number of copies of SARS-CoV-2 compared to the negative control", "setting": "SARS-CoV-2 [3]; 5 μM TMP", "value": 25, "unit": "%"}, {"measurement": "viral replication", "setting": "SARS-CoV-2 [3]; 20 μM TMP", "value": "almost zero viral replication"}, {"measurement": "viral replication", "setting": "SARS-CoV-2 [3]; 40 μM TMP", "value": "almost zero viral replication"}, {"measurement": "viral activity", "setting": "HCoV-NL63; 0.2 μM TMP, FIG. 1", "value": "partial reduction in viral activity"}, {"measurement": "viral RNA copy number (mean+standard deviation)", "setting": "HCoV-NL63; 0.2 μM TMP, NL63-infected LLC-MK2 cells, FIG. 1, P=0.004 versus negative control", "value": "50,882+2,296 copies"}, {"measurement": "viral activity", "setting": "HCoV-NL63; 1 μM TMP, FIG. 1", "value": "almost no viral activity"}, {"measurement": "cell toxicity resulting from the TMP treatment", "setting": "HCoV-NL63; 1 μM TMP", "value": "no discernable cell toxicity"}, {"measurement": "viral activity", "setting": "HCoV-NL63; 5 μM TMP, FIG. 1", "value": "almost no viral activity"}, {"measurement": "cell toxicity resulting from the TMP treatment", "setting": "HCoV-NL63; 5 μM TMP", "value": "no discernable cell toxicity"}, {"measurement": "dose response of viral RNA", "setting": "HCoV-NL63; 0.2, 1 and 5 μM TMP, FIG. 1", "value": "linear response that plateaued at 1 μM TMP"}]}]}
